The test system of the first test is PDE4. The test is described as follows: PDE4 inhibition, scintillation proximity assay (SPA).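 As to PDE4 Inhibitory Activity (concentration for the inhibition rate of 50%): A below 100 nM B 100 to below 1000 nM C 1000 nM or more.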 It is filed as biochemical. Particulars: scintillation proximity assay (SPA); evaluated as classes A, B, C; read-out: PDE4 Inhibitory Activity (concentration for the inhibition rate of 50%). The essentials:
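Compound pre-diluted 1:10 in 50 mM Tris-HCl pH 7.4, 8.3 mM MgCl2, 1.7 mM EGTA, 3 mg/mL BSA, then incubated with PDE4 and [2,8-3H]-cAMP for 120 min at room temperature. Product captured on ZnSO4-containing YSi-SPA beads for 15 min; radioactivity counted against no-enzyme blank and DMSO control.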
In the case of `COC(C)(c1cc(-c2nccs2)c2oc(N3CC4CCC(C3)N4)nc2c1OC(F)(F)F)C(F)(F)F` (stereo not drawn) [Example 215, 2-(3,8-Diazabicyclo[3.2.1]octan-3-yl)-7-(thiazol-2-yl)-5-(1,1,1-trifluoro-2-methoxypropan-2-yl)-4-(trifluoromethoxy)benzo[d]oxazole], the IC50 is < 0.1 µM.

As for `CCOC(c1ccc(-c2nccs2)c2oc(N3CC4CC(C3)N4)nc12)C(F)(F)F` (stereo not drawn) [Example 224, 2-(3,6-Diazabicyclo[3.1.1]heptan-3-yl)-4-(1-ethoxy-2,2,2-trifluoroethyl)-7-(thiazol-2-yl)benzo[d]oxazole], the IC50 is < 0.1 µM. As for `O=C(c1cc(-c2nccs2)c2oc(N3CC4CCC(C3)N4)nc2c1OC(F)(F)F)N1CC(O)(C(F)(F)F)C1` [Example 194, (2-(3,8-Diazabicyclo[3.2.1]octan-3-yl)-7-(thiazol-2-yl)-4-(trifluoromethoxy)benzo[d]oxazol-5-yl)(3-hydroxy-3-(trifluoromethyl)azetidin-1-yl)methanone], the IC50 was in the range of 0.1 to 1 µM. Same read-out and setting: then `FC(F)(F)c1c(Cl)cc(-n2cccn2)c2oc(N3CC4CCCC(C3)N4)nc12` [Example 16, 2-(3,9-Diazabicyclo[3.3.1]nonan-3-yl)-5-chloro-7-(1H-pyrazol-1-yl)-4-(trifluoromethyl)benzo[d]oxazole], with < 0.1 µM.

As to `CC(O)(c1ccc(-c2nccs2)c2oc(N3CC4CC(C3)N4)nc12)C(F)(F)F` (stereo not drawn) [Example 271, 2-(2-(3,6-Diazabicyclo[3.1.1]heptan-3-yl)-7-(thiazol-2-yl)benzo[d]oxazol-4-yl)-1,1,1-trifluoropropan-2-ol], the IC50 is < 0.1 µM.

Regarding `CCOC(=O)c1ccc(-c2nccs2)c2oc(N3CC4CCC(C3)N4)nc12` [Example 112, Ethyl 2-(3,8-diazabicyclo[3.2.1]octan-3-yl)-7-(thiazol-2-yl) benzo[d]oxazole-4-carboxylate], the IC50 was < 0.1 µM. Regarding `O=C(O)COC(c1ccc(-c2nccs2)c2oc(N3CC4CC(C3)N4)nc12)C(F)(F)F` (stereo not drawn) [Example 253, 2-(1-(2-(3,6-Diazabicyclo[3.1.1]heptan-3-yl)-7-(thiazol-2-yl)benzo[d]oxazol-4-yl)-2,2,2-trifluoroethoxy)acetic acid], the IC50 was < 0.1 µM.

Regarding `CCOC(=O)c1cc(-n2cccn2)c2oc(N3CC4CC(C3)N4)nc2c1` [Example 91, Ethyl 2-(3,6-diazabicyclo[3.1.1]heptan-3-yl)-7-(1H-pyrazol-1-yl)benzo[d]oxazole-5-carboxylate], the IC50 is > 1 µM. On the same count and under the same terms, the same measure for `O=C(NCc1ccccc1)c1cc(-c2nccs2)c2oc(N3CC4CCC(C3)N4)nc2c1` [Example 98, N-benzyl-2-(3,8-diazabicyclo[3.2.1]octan-3-yl)-7-(thiazol-2-yl)benzo[d]oxazole-5-carboxamide]: < 0.1 µM; for `OC(c1cc(-c2cscn2)c2oc(N3CC4CCC(C3)N4)nc2c1OC(F)(F)F)C(F)F` (stereo not drawn) [Example 303, 1-(2-(3,8-Diazabicyclo[3.2.1]octan-3-yl)-7-(thiazol-4-yl)-4-(trifluoromethoxy)benzo[d]oxazol-5-yl)-2,2-difluoroethan-1-ol]: < 0.1 µM; for `COc1ccc(-c2nccs2)c2oc(N3CC4CC(C3)N4)nc12` [Example 76, 2-(3,6-Diazabicyclo[3.1.1]heptan-3-yl)-4-methoxy-7-(thiazol-2-yl)benzo[d]oxazole]: < 0.1 µM. Regarding `CC(O)(c1cc(-c2nccs2)c2oc(N3CC4CCCC(C3)N4)nc2c1)C(F)(F)F` (stereo not drawn) [Example 161, 2-(2-(3,9-Diazabicyclo[3.3.1]nonan-3-yl)-7-(thiazol-2-yl)benzo[d]oxazol-5-yl)-1,1,1-trifluoropropan-2-ol], the IC50 is < 0.1 µM. `FC(F)(F)c1ccc(-c2nccs2)c2oc(N3CC4CCC(C3)N4)nc12` [Example 31, 2-(3,8-Diazabicyclo[3.2.1]octan-3-yl)-7-(thiazol-2-yl)-4-(trifluoromethyl)benzo[d]oxazole]: the IC50 is < 0.1 µM. For the compound `O=C(c1cc(-c2nccs2)c2oc(N3CC4CCC(C3)N4)nc2c1OC(F)(F)F)N1CCC1` [Example 192, (2-(3,8-Diazabicyclo[3.2.1]octan-3-yl)-7-(thiazol-2-yl)-4-(trifluoromethoxy)benzo[d]oxazol-5-yl) (azetidin-1-yl)methanone], the IC50 was < 0.1 µM.

`OCc1ccc(-c2nccs2)c2oc(N3CC4CC(C3)N4)nc12` [Example 133, (2-(3,6-Diazabicyclo[3.1.1]heptan-3-yl)-7-(thiazol-2-yl)benzo[d]oxazol-4-yl)methanol]: the IC50 was < 0.1 µM. On the same count and under the same terms, then `N#CCOC(c1cc(-c2nccs2)c2oc(N3CC4CC(C3)N4)nc2c1)C(F)(F)F` (stereo not drawn) [Example 152, 2-(1-(2-(3,6-Diazabicyclo[3.1.1]heptan-3-yl)-7-(thiazol-2-yl)benzo[d]oxazol-5-yl)-2,2,2-trifluoroethoxy)acetonitrile], with < 0.1 µM. In the case of `COC(C)c1ccc(-c2nccs2)c2oc(N3CC4CCC(C3)N4)nc12` (stereo not drawn) [Example 242, 2-(3,8-Diazabicyclo[3.2.1]octan-3-yl)-4-(1-methoxyethyl)-7-(thiazol-2-yl)benzo[d]oxazole], the IC50 is < 0.1 µM. On the same count and under the same terms, then `CCOC(=O)c1ccc(-c2nccs2)c2oc(N3CC4CC(C3)N4)nc12` [Example 113, Ethyl 2-(3,6-diazabicyclo[3.1.1]heptan-3-yl)-7-(thiazol-2-yl)benzo[d]oxazole-4-carboxylate], with < 0.1 µM; and `Oc1cc(-c2nccs2)c2oc(N3CC4CCCC(C3)N4)nc2c1` [Example 65, 2-(3,9-Diazabicyclo[3.3.1]nonan-3-yl)-7-(thiazol-2-yl) benzo[d]oxazol-5-ol], with < 0.1 µM; and `CC(C)(O)C(F)(F)Oc1ccc(-c2ccccn2)c2oc(N3CC4CC(C3)N4)nc12` [Example 289, 1-((2-(3,6-Diazabicyclo[3.1.1]heptan-3-yl)-7-(pyridin-2-yl)benzo[d]oxazol-4-yl)oxy)-1,1-difluoro-2-methylpropan-2-ol], with < 0.1 µM.

For `COC(c1ccc(-c2nccs2)c2oc(N3CC4CC(C3)N4)nc12)C(F)(F)F` (stereo not drawn) [Example 123, 2-(3,6-Diazabicyclo[3.1.1]heptan-3-yl)-7-(thiazol-2-yl)-4-(2,2,2-trifluoro-1-methoxyethyl)benzo[d]oxazole], the IC50 is < 0.1 µM. As for `OC(O)(c1cc(-c2nccs2)c2oc(N3CC4CC(C3)N4)nc2c1)C(F)(F)F` [Example 158, 1-(2-(3,6-Diazabicyclo[3.1.1]heptan-3-yl)-7-(thiazol-2-yl)benzo[d]oxazol-5-yl)-2,2,2-trifluoroethane-1,1-diol], the IC50 lay within 0.1 to 1 µM. For `FC(F)(F)Oc1c(Cl)cc(-c2ccccn2)c2oc(N3CC4CCC(C3)N4)nc12` [Example 7, 2-(3,8-Diazabicyclo[3.2.1]octan-3-yl)-5-chloro-7-(pyridin-2-yl)-4-(trifluoromethoxy)benzo[d]oxazole], the IC50 was < 0.1 µM. Same read-out and setting: then `CC(C)(O)c1cc(-c2nccs2)c2oc(N3CC4CCC(C3)N4)nc2c1` [Example 172, 2-(2-(3,8-Diazabicyclo[3.2.1]octan-3-yl)-7-(thiazol-2-yl)benzo[d]oxazol-5-yl)propan-2-ol], with < 0.1 µM; and `CC(=O)c1ccc(-c2nccs2)c2oc(N3CC4CC(C3)N4)nc12` [Example 244, 1-(2-(3,6-Diazabicyclo[3.1.1]heptan-3-yl)-7-(thiazol-2-yl)benzo[d]oxazol-4-yl)ethan-1-one], with < 0.1 µM; and `COC(C)c1cc(-c2nccs2)c2oc(N3CC4CCC(C3)N4)nc2c1C(F)(F)F` (stereo not drawn) [Example 184, 2-(3,8-Diazabicyclo[3.2.1]octan-3-yl)-5-(1-methoxyethyl)-7-(thiazol-2-yl)-4-(trifluoromethyl)benzo[d]oxazole], with < 0.1 µM. Take `FC(F)(F)c1c(Cl)cc(-c2ccccn2)c2oc(N3CC4COCC(C3)N4)nc12` [Example 14, 7-(5-Chloro-7-(pyridin-2-yl)-4-(trifluoromethyl)benzo[d]oxazol-2-yl)-3-oxa-7,9-diazabicyclo[3.3.1]nonane]: the IC50 was 0.1 to 1 µM.

Turning to `N#CCOC(c1ccc(-c2nccs2)c2oc(N3CC4CC(C3)N4)nc12)C(F)(F)F` (stereo not drawn) [Example 226, 2-(1-(2-(3,6-Diazabicyclo[3.1.1]heptan-3-yl)-7-(thiazol-2-yl)benzo[d]oxazol-4-yl)-2,2,2-trifluoroethoxy)acetonitrile], the IC50 is < 0.1 µM. Same read-out and setting: then `CC(C)(O)c1cc(-c2nccs2)c2oc(N3CC4CC(C3)N4)nc2c1C(F)(F)F` [Example 178, 2-(2-(3,6-Diazabicyclo[3.1.1]heptan-3-yl)-7-(thiazol-2-yl)-4-(trifluoromethyl)benzo[d]oxazol-5-yl)propan-2-ol], with < 0.1 µM; and `COc1ccc(-c2nccs2)c2oc(N3CC4CCC(C3)N4)nc12` [Example 75, 2-(3,8-Diazabicyclo[3.2.1]octan-3-yl)-4-methoxy-7-(thiazol-2-yl)benzo[d]oxazole], with < 0.1 µM.

Staying with this test, now noted: scintillation proximity assay; class symbols; read-out: PDE4 Inhibitory Activity.
As for `CCC(F)(F)Oc1ccc(-c2nccs2)c2oc(N3CC4CC(C3)N4)nc12` [Example 402, 2-(3,6-diazabicyclo [3.1.1]heptan-3-yl)-4-(1,1-difluoro-propoxy)-7-(thiazol-2-yl) benzo[d] oxazole], the IC50 was < 0.1 µM. On the same count and under the same terms, the same measure for `CN(C)C(=O)C(F)(F)Oc1ccc(-c2nccs2)c2oc(N3CC4CC(C3)N4)nc12` [Example 408, 2-((2-(3,6-diazabicyclo [3.1.1]heptan-3-yl)-7-(thiazol-2-yl)benzo[d]oxazol-4-yl)oxy)-2,2-difluoro-N,N-dimethyl-acetamide]: < 0.1 µM; for `FC(F)(/C=C/c1cccnc1)Oc1ccc(-c2nccs2)c2oc(N3CC4CC(C3)N4)nc12` [Example 406, (E)-2-(3,6-diazabicyclo [3.1.1]heptan-3-yl)-4-((1,1-difluoro-3-(pyridin-3-yl)allyl)oxy)-7-(thiazol-2-yl) benzo[d] oxazole]: < 0.1 µM.

These data come from patent US10669283B2, “Compound and pharmacologically acceptable salt thereof” (MEIJI SEIKA PHARMA CO., LTD., priority 2016, dated 2020).
